The series can be described thus: Acute oral toxicity test in mice. In kind it is in vivo, BALB/c mice. Conditions: for survival number: n = 6, 14 days; for Body weight Day0 / Body weight Day7 / Body weight Day14: n = 6, in g (unit assumed). How it is done:
Mice were housed under standard conditions at a temperature of 24 ± 2°C and a humidity of 50%–80%. Lighting was alternated between day and night every 12 hours. All mouse groups consisted of six animals per cage, and these were fed ad libitum with SPF-grade stock diet and water. All the experimental mice were adapted to the animal room for 1 to 2 weeks before the experiment.
For the acute toxicity test, the mice were divided into four groups. Each group contained six mice. Mice were fasted for 2 hours before feeding with a single oral dose of peptide. The mice in each group were fed with peptide at a single oral dose of 500, 200, and 100 mg/kg body weight. Normal saline (1 mL) was used as control. The general behavior of each mouse was observed continuously for the first 1 hour, then intermittently every 4 hours, and thereafter over a period of 24 hours ([43]).

The source of these data is publication PMC11232398, “Antimalarial activity of cecropin antimicrobial peptides derived from Anopheles mosquitoes” (Antimicrobial Agents and Chemotherapy, 2024).

As for “APRWKFGKRLEKLGRNVFRAA KKALPVIAGYKAL-NH2 [An-cecB]”, the survival number amounted to 6 (single oral dose 100 mg/kg); 6 (single oral dose 200 mg/kg); 5 (single oral dose 500 mg/kg, one mouse died on Day8). Also, the “Body weight Day0” value is 20.45±1.56 (single oral dose 100 mg/kg), 20.45±1.56 (single oral dose 200 mg/kg) and 19.55±2.01 (single oral dose 500 mg/kg). In addition, the “Body weight Day7” value is, setting by setting: (single oral dose 100 mg/kg) 20.9±1.62; (single oral dose 200 mg/kg) 19.25±1.8. The “Body weight Day14” value by setting is: (single oral dose 100 mg/kg) 21.98±0.91; (single oral dose 200 mg/kg, P < 0.01 vs control) 18.4±2.1; (single oral dose 500 mg/kg, P < 0.01 vs control) 16.54±3.24.
